Laboratory results reported in patent publication US11279703B2, “Fused pyrimidine compounds as BRD4 and JAK2 dual inhibitors and methods for use thereof” (APTOSE BIOSCIENCES INC., priority 2016, dated 2022).

What was measured:
BRD4-BD1 = BRD4-BD1 (Homo sapiens (Human), UniProt O60885); assay: AlphaLisa bromodomain binding assay, BRD4-BD1; details: Table 6; read-out: BRD4(1) IC50
JAK2 = JAK2 (Homo sapiens (Human), UniProt O60674); assay: HTRF kinase assay, JAK2; format: biochemical; details: Table 6
JAK2, sequence (O60674 whole entry): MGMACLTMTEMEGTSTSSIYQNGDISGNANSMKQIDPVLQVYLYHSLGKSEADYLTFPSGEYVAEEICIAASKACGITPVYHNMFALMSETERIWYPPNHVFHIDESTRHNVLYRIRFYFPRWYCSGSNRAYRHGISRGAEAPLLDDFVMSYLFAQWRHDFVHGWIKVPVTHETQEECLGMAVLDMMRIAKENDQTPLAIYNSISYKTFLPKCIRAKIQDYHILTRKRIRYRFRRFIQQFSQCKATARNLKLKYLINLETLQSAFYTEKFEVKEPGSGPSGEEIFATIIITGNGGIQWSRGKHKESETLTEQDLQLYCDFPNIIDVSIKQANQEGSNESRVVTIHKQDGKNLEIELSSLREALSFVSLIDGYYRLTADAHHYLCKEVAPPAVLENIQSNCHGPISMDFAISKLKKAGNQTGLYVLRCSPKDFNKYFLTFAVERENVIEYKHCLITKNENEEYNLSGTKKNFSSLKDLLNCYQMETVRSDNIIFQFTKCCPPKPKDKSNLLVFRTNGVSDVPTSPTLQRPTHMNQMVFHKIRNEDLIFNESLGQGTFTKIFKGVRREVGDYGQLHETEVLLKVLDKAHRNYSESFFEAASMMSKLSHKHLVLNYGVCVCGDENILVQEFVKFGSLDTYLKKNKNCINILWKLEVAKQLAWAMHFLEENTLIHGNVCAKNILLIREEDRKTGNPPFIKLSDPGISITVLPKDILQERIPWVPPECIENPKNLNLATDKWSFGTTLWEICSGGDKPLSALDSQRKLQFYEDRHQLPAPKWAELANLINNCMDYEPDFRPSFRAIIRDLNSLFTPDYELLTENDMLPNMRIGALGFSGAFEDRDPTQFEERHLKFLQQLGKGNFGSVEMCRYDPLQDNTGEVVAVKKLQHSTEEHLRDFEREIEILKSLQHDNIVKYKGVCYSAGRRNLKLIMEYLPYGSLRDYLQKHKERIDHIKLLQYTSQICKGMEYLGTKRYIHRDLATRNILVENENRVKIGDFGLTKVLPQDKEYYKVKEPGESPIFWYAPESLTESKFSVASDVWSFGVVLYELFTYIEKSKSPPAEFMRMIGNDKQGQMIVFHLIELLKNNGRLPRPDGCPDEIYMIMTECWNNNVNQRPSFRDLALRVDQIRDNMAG
Excerpt: A kinase assay with HTRF was used to observe JAK activity and calculate the IC50s of compounds disclosed herein. HTRF is an enzymatic assay used to determine the amount of phosphorylated peptide. FRET (Fluorescence Resonance Energy Transfer) is based on the transfer of energy between two fluorophores—a donor and an acceptor—when in close proximity. Molecular interactions between biomolecules can be assessed by coupling each partner with a fluorescent label and by detecting the level of energy transfer. The amount of phopshorylated peptide can be detected using a combination of a Eu 3+Cryptate labeled anti-phospho residue antibody, SA-XL665 and a biotinylated substrate. The signal is proportional to the concentration of phospho-residues.
Equipment Required • 1. […] Plate centrifuge • 3. Plate shaker • 4. […] Single channel and multi-channel pipettes • 6. Microplate reader (Pherastar)]
Stock and Final Assay Concentrations (FAC) • 1. All reference and test compounds are made at a concentration of 10 mM in DMSO. Compounds are serially diluted in DMSO and a FAC starting from 10 μM to 10 point 3 fold serial dilutions is arrived. For Ruxolitinib the starting FAC is 1 μM. FAC of DMSO is 1%. • 2. Enzyme stock and FAC
• JAK-1: Invtirogen Cat: PR8767C • JAK-2: Invtirogen Cat: PR7820B • JAK-3: Invtirogen Cat: PR7507B • 3. Substrate (synthetic peptide-Biotinylated-N-terminal tag-[…] from Biopeptide) stock and FAC
• Adenosine 5′-triphosphate disodium salt hydrate: Sigma Cat: A26209 • 5. […] Buffers • Base buffer (for 50 ml)
• HTRF buffer: • 50 mM Tris-HCl, pH—7.5 • 100 mM NaCl • 0.1% BSA • 0.05% Tween20 • 0.5 mM EDTA
To a 384 well black-plate: • 1. Add 17 μL of the buffer to each well of the 384-well black plate • 2. […] Add 5 μl of the enzyme to each well of the plate • 4. Add 10 μl of the substrate and ATP mix to all the wells • 5. Cover with plate sealer • 6. […] Incubate at room temperature for 1 hour on shaker • 8. […] Add 37.5 μL of the HTRF mix to these wells. • 9. Incubate the plate at room temperature on shaker for 45 minutes. • 10.
The percent inhibition is calculated in the excel analysis template and the IC50 values are subsequently determined using a sigmoidal dose-response curve (variable slope) using GraphPad Prism® 5 software.

SMILES | IC50 (BRD4-BD1) [nM] | IC50 (JAK2) [nM]
CN1CCN2c3c(F)cc(Nc4ncc5ccn(-c6ccc(F)c(NS(=O)(=O)C(C)(C)C)c6)c5n4)cc3CC2C1 (centres unmarked) | 383 | 56
CC1(C)CNCCC1Nc1cc(Nc2cccc(NS(=O)(=O)C(C)(C)C)c2)c2ccsc2c1 (centres unmarked) | 2830 | 10000
CC(C)(C)S(=O)(=O)Nc1cc(-c2csc3cnc(Nc4ccc(N5CCNCC5)c(F)c4)nc23)ccc1F | 162 | 51
CC(C)(C)S(=O)(=O)Nc1cccc(Nc2nc(NC3CCNC(=O)C3)nc3sccc23)c1 (centres unmarked) | 1210 | 10000
O=C(NC1CCNCC1)c1ccc(Nc2ncc3ccn(-c4cccc(NS(=O)(=O)C5CC5)c4)c3n2)cc1 | 2100 | 40
Cc1cnc(Nc2ccc(N3CCN(C)CC3)cc2)nc1-n1ccc2c1CCNC2=O | 5720 | 5920
CC(C)(C)S(=O)(=O)Nc1cccc(Nc2nc(NC3CCNCC3)nc3sccc23)c1 [drawing 406] | 1200 | 10000
CNCCNC(=O)Cc1ccc(Nc2ncc3ccn(-c4ccc(F)c(NS(=O)(=O)C(C)(C)C)c4)c3n2)cc1 | 193 | 359
CN(C)C1CCN(c2ccc(Nc3ncc4ccn(-c5ccc(F)c(NS(=O)(=O)C6(C)CC6)c5)c4n3)cc2F)CC1 | 248 | 20
CNC1CCN(C(=O)c2ccc(Nc3ncc4scc(-c5cccc(NS(=O)(=O)C(C)(C)C)c5)c4n3)cc2F)CC1 | 298 | 12
CN(C)C1CCN(c2ccc(Nc3ncc4ccn(-c5cccc(NS(=O)(=O)C(C)(C)C)c5)c4n3)cc2F)CC1 [drawing 401] | 377 | 4.4
CC1CNCC(C)C1Nc1nc(Nc2cccc(NS(=O)(=O)C(C)(C)C)c2)c2ccsc2n1 (centres unmarked) | 10000 | 10000
CN(C)C1CCN(c2ccc(Nc3ncc4ccn(-c5cccc(NS(=O)(=O)C(C)(C)C)c5)c4n3)cc2F)CC1 [drawing 385] | 131 | 3
CN(C)C1CCN(c2ccc(Nc3ncc4ccn(-c5ccc(F)c(NS(=O)(=O)C(C)(C)C)c5)c4n3)cc2F)CC1 [drawing 408] | 63 | 43
CC(C)(C)S(=O)(=O)Nc1cccc(Nc2nc(NC3CCNCC3)nc3sccc23)c1 [drawing 267] | 590 | 10000
CN1CCC(Nc2nc(Nc3cccc(NS(=O)(=O)C(C)(C)C)c3)c3cc[nH]c3n2)CC1 | 7080 | 10000
CN(C)C1CCN(c2ccc(Nc3ncc4scc(-c5cccc(NS(=O)(=O)C(C)(C)C)c5)c4n3)cc2)CC1 | 368 | 3
CN1CCC(NC(=O)c2ccc(Nc3ncc4ccn(-c5cccc(NS(=O)(=O)C6CC6)c5)c4n3)cc2)CC1 | 1900 | 44
CN(C)C1CCN(c2ccc(Nc3ncc4ccn(-c5ccc(F)c(NS(=O)(=O)C6CC6)c5)c4n3)cc2)CC1 | 1010 | 10
CC(C)(C)S(=O)(=O)Nc1cccc(Nc2nc(NC3CCN(c4ccccc4)CC3)nc3sccc23)c1 | 10000 | 10000
CNC1CCN(c2ccc(Nc3ncc4scc(-c5cccc(NS(=O)(=O)C(C)(C)C)c5)c4n3)cc2F)CC1 | 431 | 2
COc1nc(NC2CCNCC2)nc2c1ccn2-c1cccc(NS(=O)(=O)C(C)(C)C)c1 | 122 | 3010
COc1cc(Nc2ncc3scc(-c4cccc(NS(=O)(=O)C(C)(C)C)c4)c3n2)ccc1N1CCNCC1 | 356 | 4
CN1CCC(NC(=O)c2ccc(Nc3ncc4ccn(-c5ccc(F)c(NS(=O)(=O)C(C)(C)C)c5)c4n3)cc2F)CC1 [drawing 363] | 134 | 130
Cc1ccc(-n2ccc3cnc(Nc4ccc(N5CCNCC5)cc4)nc32)cc1NS(=O)(=O)C1CC1 | 2200 | 31
CN(C)C1CCN2c3ccc(Nc4ncc5ccn(-c6cccc(NS(=O)(=O)C(C)(C)C)c6)c5n4)cc3CC2C1 (centres unmarked) [drawing 445] | 105 | 12
CN1CCC(NC(=O)c2ccc(Nc3ncc4ccn(-c5ccc(F)c(NS(=O)(=O)C6CC6)c5)c4n3)cc2F)CC1 | 776 | 35
CN1CCN2c3ccc(Nc4ncc5scc(-c6cccc(NS(=O)(=O)C(C)(C)C)c6)c5n4)cc3CC2C1 (centres unmarked) | 607 | 2
CN1CCC(Nc2nc(Nc3cccc(N(C)S(=O)(=O)C(C)(C)C)c3)c3ccsc3n2)CC1 | 940 | 10000
CC(C)(C)S(=O)(=O)Nc1cc(-n2ccc3cnc(Nc4ccc(N5CCN(S(C)(=O)=O)CC5)c(F)c4)nc32)ccc1F | 1400 | 400

The next lines start with the values.

IC50 (BRD4-BD1) [nM] | IC50 (JAK2) [nM] | SMILES
1100 | 9 | CN1CCN(c2ccc(Nc3ncc4ccn(-c5cccc(N(C)S(=O)(=O)C(C)(C)C)c5)c4n3)cc2)CC1
641 | 176 | Cc1ccc(-n2ccc3cnc(Nc4ccc(N5CCNCC5)cc4)nc32)cc1NS(=O)(=O)C(C)(C)C
1300 | 38 | CN1CCN(c2ccc(Nc3ncc4ccn(-c5ccc6c(c5)N(S(=O)(=O)C(C)(C)C)CC6)c4n3)cc2F)CC1
2860 | 4650 | CN1CCN(c2ccc(Nc3cc(Nc4cccc(NS(=O)(=O)C(C)(C)C)c4)c4sccc4n3)cc2)CC1
3060 | 19.7 | Cc1ccc(-n2ccc3cnc(Nc4ccc(N5CCN(C)CC5)cc4)nc32)cc1NS(=O)(=O)C1CC1
10000 | 10000 | CN1CCN(c2ccc(Nc3ccc4ccn(-c5cccc(NS(=O)(=O)C(C)(C)C)c5)c4n3)cc2)CC1
8300 | 3 | CN1CCN(c2ccc(Nc3ncc4ccn(-c5cccc(CNS(=O)(=O)C(C)(C)C)c5)c4n3)cc2)CC1
10000 | 11 | NC(=O)N1CCN(c2ccc(Nc3ncc4ccn(-c5cccc(NS(=O)(=O)C6CC6)c5)c4n3)cc2)CC1
10000 | 3 | CN1CCN(c2ccc(Nc3ncc4ccn(-c5cccc(NS(=O)(=O)c6ccccc6)c5)c4n3)cc2)CC1 [drawing 287]
10000 | 0.7 | CN1CCN(c2ccc(Nc3ncc4ccn(-c5ccc(NS(=O)(=O)C(C)(C)C)cc5)c4n3)cc2)CC1 [drawing 362]
5730 | 24900 | CC(=O)N1CCN(c2ccc(Nc3ncc4ccn(-c5cccc(NS(=O)(=O)C6CC6)c5)c4n3)cc2)CC1
3200 | 19 | CNC(=O)N1CCN(c2ccc(Nc3ncc4ccn(-c5cccc(NS(=O)(=O)C(C)(C)C)c5)c4n3)cc2)CC1
1680 | 32 | CN1CCN(c2ccc(Nc3nc(Nc4cccc(NS(=O)(=O)C(C)(C)C)c4)c4cc[nH]c4n3)cc2)CC1
577 | 72 | CN1CCN(c2ccc(Nc3ncc4ccn(-c5cccc(NS(=O)(=O)C(C)(C)C)c5)c4n3)cc2C(N)=O)CC1
211 | 12 | Cc1cnc(Nc2ccc(N3CCN(C)CC3)cc2)nc1Nc1cccc(NS(=O)(=O)C(C)(C)C)c1 [drawing 114]
278 | 6.6 | Cc1cnc(Nc2ccc(N3CCN(C)CC3)cc2)nc1Nc1cccc(NS(=O)(=O)C(C)(C)C)c1 [drawing 353]
228 | 188 | CN1CCN(c2ccc(Nc3ncc4ccn(-c5ccc(F)c(NS(=O)(=O)C(C)(C)C)c5)c4n3)cc2)CC1 [drawing 340]
321 | 137 | CN1CCN2c3ccc(Nc4ncc5ccn(-c6ccc(F)c(NS(=O)(=O)C(C)(C)C)c6)c5n4)cc3CC2C1 (centres unmarked)
155 | 7 | Cc1cnc(Nc2ccc(N3CCN(C)CC3)cc2)nc1Nc1cccc(NS(=O)(=O)C(C)(C)C)c1 [drawing 396]
190 | 5 | CN(C)C1CCN(c2ccc(Nc3ncc4ccn(-c5cccc(NS(=O)(=O)C(C)(C)C)c5)c4n3)cc2)CC1 [drawing 368]
10000 | 0.6 | CN1CCN(c2ccc(Nc3ncc4ccn(-c5ccc6c(c5)CCN6S(=O)(=O)C(C)(C)C)c4n3)cc2)CC1 [drawing 398]
1600 | 2800 | COc1cc(N2CCN(C)CC2)ccc1Nc1ncc2ccn(-c3cccc(NS(=O)(=O)C(C)(C)C)c3)c2n1
255 | 10 | Cc1cnc(Nc2ccc(N3CCN(C)CC3)cc2)nc1Nc1cccc(NS(=O)(=O)C(C)(C)C)c1 [drawing 258]
682 | 20 | CC(C)(C)S(=O)(=O)Nc1cccc(-n2ccc3cnc(Nc4ccc(NCCN)cc4)nc32)c1
4600 | 40 | CC(C)(C)S(=O)(=O)Nc1cccc(-n2ccc3cnc(Nc4ccc(N5CCN(S(C)(=O)=O)CC5)cc4)nc32)c1
